Columns and labels:
[1] = tested on: L-1210 lymphoid leukemia (LE); test: Anti-cancerous activity in mice, L-1210 lymphoid leukemia (LE); type: in vivo, mouse
Text: (§1) An extensive research program carried out by the National Cancer Institute, Bethesda, Md., and the European Organization for Research on the Treatment of Cancer, Brussels, Belgium, has shown that when compared to PDD, compounds according to this invention, particularly compounds having the following formulas display a high therapeutic activity against a great number of different mammalian types of tumor, such as P 388 lymphocytic leukemia (PS), L-1210 lymphoid leukemia (LE), ependymoblastoma (EM), B 16 melanocarcinoma (B1) and a line of L-1210 leukemia resistant to cis-PDD (LE/cis-PDD): [drawing 9]
(§2) More detailed information concerning the testing procedure and their interpretation are contained in Instruction 14, Screening Data Summary, Interpretation and Outline of Current Screen, Drug Evaluation Branch, National Cancer Institute, Bethesda, Md., 20014 (1977) which is incorporated herein by reference.
(§3) *Period of survival is the ratio of survival times of the treated mice (T
(§4) to untreated mice (C); the therapeutic activity is significant at T/C
(§5) ≥ 125. The figures include dying mice only. A cure is defined as a
(§6) mouse free of tumors 45 days after injection, as determined by visual
(§7) **For Formula 12-cis PDD the mice were injected with 10^6 L1210
(§8) ascites cells. One I.P. injection of the test compound was given to each

[2] = literature; cited from earlier work
[3] = literature; cited from earlier work; remark: listed apart in the source
[4] = tested on: B 16 melanocarcinoma (B1); test: Anti-cancerous activity in mice, B 16 melanocarcinoma (B1); type: in vivo, mouse; settings: B16, B6 D2 (BDF) mice
Text: as §1, §2, §3, §4, §5, §6

[5] = tested on: L-1210 leukemia resistant to cis-PDD (LE/cis-PDD); test: Anti-cancerous activity in mice, L-1210 leukemia resistant to cis-PDD (LE/cis-PDD); type: in vivo, mouse; settings: for T/C (period of survival, treated/untreated) / cures (mice free of tumors 45 days after injection): LE/cis PDD, BDF1 mice; for T/C (period of survival, treated/untreated): one I.P. injection; for cures (mice free of tumors 45 days after injection): of six mice; for effectiveness against the cis-PDD resistant line of L-1210 versus the parent line: mice
Text: as §1, §2, §3, §4, §5, §6, §7, §8

[6] = Urea-nitrogen in the blood after administering platinum complexes (in the rat); type: in vivo
Procedure: Percentage of urea-nitrogen in the blood after
administering platinum complexes (in the rat).
Both at doses corresponding with the LD10 -amount and at those corresponding with the LD50 -amount the urea-nitrogen contents in the blood are identical to the control values. BUN values≥30 mg% are generally considered indicative of drug-induced nephrotoxicity. […] In was found by means of a histological examination of rats after treatment with toxic doses of compounds of this invention, that these compounds display little or no kidney toxicity.

mammalian types of tumor = test: Therapeutic activity against mammalian tumors (NCI / EORTC program); type: in vivo, mouse; settings: mice; Table A experiments
Text: as §1, §2

cancer = settings: literature, cited from earlier work
[7] = Lethal doses LD10 / LD50 given with the BUN test in the rat
[8] = tested on: P 388 lymphocytic leukemia (PS); test: Anti-cancerous activity in mice, P 388 lymphocytic leukemia (PS); type: in vivo, mouse; settings: CD2 F1 mice
Text: as §1, §2, §3, §4, §5, §6

ependymoblastoma (EM) = test: Anti-cancerous activity in mice, ependymoblastoma (EM); type: in vivo, mouse
Text: as §1, §2, §3, §4, §5, §6

[9] = CD2 F1 mice, 12.50 mg/kg per injection
[10] = BDF1 mice, 50.00 mg/kg, one I.P. injection, 10^6 L1210 ascites cells
[11] = 6.25 mg/kg per injection, significant at T/C ≥ 125

CCC(C)(CN)CN.[Cl][Pt][Cl] [Formula 8, Cis-dichloro-(2-methyl-2-ethyl)-1,3-propane diamine platinum (II)]
T/C (period of survival, treated/untreated) [1, 9]: 289%

cis-dichlorobiscyclopentyl amine platinum(II)
kidney toxicity [2]: only slightly toxic to the kidneys
spleen toxicity [3]: toxic to the spleen

cis-platinum diamine dichloride [PDD]
T/C (period of survival, treated/untreated) ([1]; BDF1 mice, 8.00 mg/kg, one I.P. injection, 10^6 L1210 ascites cells): 183%
T/C (period of survival, treated/untreated) ([4]; 2.00 mg/kg per injection): 197%
T/C (period of survival, treated/untreated) ([5]; 4-8 mg/kg): 106-121%
Percentage of urea-nitrogen in blood ([6]; 3 mg/kg (LD10), 0 days after injection): 10%
Percentage of urea-nitrogen in blood ([6]; 3 mg/kg (LD10), 2 days after injection): 13%
Percentage of urea-nitrogen in blood ([6]; 3 mg/kg (LD10), 4 days after injection): 52%
Percentage of urea-nitrogen in blood ([6]; 7.6 mg/kg (LD50), 0 days after injection): 10%
Percentage of urea-nitrogen in blood ([6]; 7.6 mg/kg (LD50), 2 days after injection): 78%
Percentage of urea-nitrogen in blood ([6]; 7.6 mg/kg (LD50), 4 days after injection): 148%
increase in the urea nitrogen content ([6]; LD10 dose, 4 days after injection): about a quadruple increase
complete cures (mammalian types of tumor): not observed
therapeutic index (cancer): low therapeutic index
toxicity (cancer; treatment of cancer): Toxicity is a very serious drawback
LD10 [7]: 3 mg/kg
LD50 [7]: 7.6 mg/kg

NCC1(CN)CCC1.[Cl-].[Cl-].[Pt+2] [Formula 12, Cis-dichloro-1,1-di(aminomethyl)cyclobutane platinum(II)]
T/C (period of survival, treated/untreated) ([1]; BDF1 mice, 15.00 mg/kg, one I.P. injection, 10^6 L1210 ascites cells): 208%

NCC1(CN)CCCCC1.O=C1[O][Pt][O]C(=O)C1O [Formula 19, Cis-1,1-di(aminomethyl)cyclohexanehydroxymalonato platinum(II)]
T/C (period of survival, treated/untreated) ([1]; BDF1 mice, 36.00 mg/kg, one I.P. injection, 10^6 L1210 ascites cells): 246%
cures (mice free of tumors 45 days after injection) ([5]; 24.00 mg/kg): 3/6
T/C (period of survival, treated/untreated) ([5]; 24.00 mg/kg): > 500%
effectiveness against the cis-PDD resistant line of L-1210 versus the parent line [5]: even more effective against the cis-PDD resistant line of L-1210 than they are against the parent line of L-1210

NCC1(CN)CCCC1.[Cl][Pt][Cl] [Formula 10, Cis-dichloro-1,1-di(aminomethyl)cyclopentane platinum(II)]
T/C (period of survival, treated/untreated) [1, 9]: 148%

CC(C)C(CN)(CN)C(C)C.[Cl-].[Cl-].[Pt+2] [Formula 14, Cis-dichloro-2,2-diisopropyl-1,3-propane diamine platinum(II)]
T/C (period of survival, treated/untreated) [1, 10]: 178%

CCC(CC)(CN)CN.O=S(=O)([O-])[O-].[Pt+2] [Formula 17, Cis-2,2-diethyl-1,3-propanediamine platinum(II) sulphate]
T/C (period of survival, treated/untreated) ([1]; BDF1 mice, 12.00 mg/kg, one I.P. injection, 10^6 L1210 ascites cells): 200%
cures (mice free of tumors 45 days after injection) ([5]; 6.00 mg/kg): 3/6
T/C (period of survival, treated/untreated) ([5]; 6.00 mg/kg): > 500%
effectiveness against the cis-PDD resistant line of L-1210 versus the parent line [5]: even more effective against the cis-PDD resistant line of L-1210 than they are against the parent line of L-1210

NCC1(CN)CCCCC1.O=C([O-])CC(=O)[O-].[Pt+2] [Formula 18, Cis-1,1-di(aminomethyl)-cyclohexanemalonato platinum(II)]
cures (mice free of tumors 45 days after injection) ([1]; BDF1 mice, 64.00 mg/kg, of six mice): 1/6
T/C (period of survival, treated/untreated) ([1]; BDF1 mice, 64.00 mg/kg, one I.P. injection, dying mice only): 200%
T/C (period of survival, treated/untreated) ([5]; 16.00 mg/kg): 230%
effectiveness against the cis-PDD resistant line of L-1210 versus the parent line [5]: even more effective against the cis-PDD resistant line of L-1210 than they are against the parent line of L-1210

NCC1(CN)CCCCC1.[Cl][Pt][Cl] [Formula 4, Cis-dichloro-1,1-di(aminomethyl)cyclohexane platinum(II)]
T/C (period of survival, treated/untreated) ([8]; 1.56 mg/kg per injection): 153%
T/C (period of survival, treated/untreated) ([8]; 3.12 mg/kg per injection): 181%
T/C (period of survival, treated/untreated) [8, 11]: 201%
T/C (period of survival, treated/untreated) ([1]; CD2 F1 mice, 3.12 mg/kg per injection): 145%
T/C (period of survival, treated/untreated) ([1]; CD2 F1 mice, 6.25 mg/kg per injection): 180%
T/C (period of survival, treated/untreated) [1, 9]: 234%
T/C (period of survival, treated/untreated) (ependymoblastoma (EM); C57BL/6 mice, 6.00 mg/kg per injection): 126%
T/C (period of survival, treated/untreated) ([4]; 1.50 mg/kg per injection): 190%
T/C (period of survival, treated/untreated) ([4]; 3.00 mg/kg per injection): 208%
T/C (period of survival, treated/untreated) ([4]; 6.00 mg/kg per injection): 208%
LD10 [7]: 8 mg/kg
LD50 [7]: 15 mg/kg

NCC1(CN)CCCCC1.O=C(CCl)[O][Pt][O]C(=O)CCl [Formula 16, Cis-1,1-di(aminomethyl)-cyclohexane-bis(chloroacetato)platinum(II)]
T/C (period of survival, treated/untreated) ([1]; BDF1 mice, 6.00 mg/kg, one I.P. injection, 10^6 L1210 ascites cells): 207%

NCC1(CN)CCCCC1.O=C(O)c1ccc2c(c1)C(=O)[O][Pt][O]C2=O [Formula 15, Cis-4-carboxyphthalato-1,1-di(aminomethyl)-cyclohexane platinum (II)]
T/C (period of survival, treated/untreated) ([1]; BDF1 mice, 40.00 mg/kg, one I.P. injection, 10^6 L1210 ascites cells): 200%

CCC(CC)(CN)CN.[Cl][Pt][Cl] [Formula 9, Cis-dichloro-2,2-diethyl-1,3-propane diamine platinum(II)]
T/C (period of survival, treated/untreated) [1, 9]: 323%

NCC1(CN)CCCCC1.O=S(=O)([O-])[O-].[Pt+2] [Formula 11, Cis-1,1-di(aminomethyl)cyclohexane platinum(II) sulphate]
T/C (period of survival, treated/untreated) [1, 9]: 274%

NCC1(CN)CCCCC1.O=C1[O][Pt][O]C(=O)C12CCCCC2 [Formula 7, Cis-cyclopentamethylene malonato-1,1-di(aminomethyl)cyclohexane platinum(II)]
T/C (period of survival, treated/untreated) [8, 11]: 162%
T/C (period of survival, treated/untreated) ([8]; 12.50 mg/kg per injection): 177%
T/C (period of survival, treated/untreated) ([8]; 25.00 mg/kg per injection): 226%
T/C (period of survival, treated/untreated) ([1]; CD2 F1 mice, 80.00 mg/kg per injection): 138%
T/C (period of survival, treated/untreated) (ependymoblastoma (EM); 57BL/6 mice, 6.25 mg/kg per injection): 130%
T/C (period of survival, treated/untreated) (ependymoblastoma (EM); 57BL/6 mice, 12.50 mg/kg per injection): 163%

NCC(CN)(Cc1ccccc1)Cc1ccccc1.[Cl][Pt][Cl] [Formula 13, Cis-dichloro-2,2-dibenzyl-1,3-propane diamine platinum(II)]
T/C (period of survival, treated/untreated) [1, 10]: 135%

From patent publication US4410544A, “Platinum-diamine complexes, a method for the preparation of a medicine using such a platinum-diamine complex for the treatment of malignant tumor in mice” (priority 1978, dated 1983)
